The values below come from patent publication US20020051978A1, “Methods and compositions for the identification, assessment, prevention and therapy of human cancers” (priority 2000, published 2002).

Where “and” joins values, the source holds several entries; their conditions need not be identical. Equal entries are not always repeated. Structures can show the parent of a compound that is named as a salt. Where two headings read alike, the source gives them in different places.

The test system of this assay is 60 cancer cell lines (NCI 60 cancer cell line series). Description: NCI-DTP in vitro cancer screen, sulforhodamine B (SRB) growth inhibition, 48 hour exposure. Type of assay: cell-based, human. Also on record: key to sensitivity class Ovarian OVCAR-8 CL6005 / sensitivity class Ovarian SK-OV-3 CL6011 / sensitivity class Prostate DU-145 CL11003 / sensitivity class NSCLC NCI-H522 CL1003 / sensitivity class Ovarian IGROV1 CL6010 / sensitivity class Ovarian OVCAR-4 CL6002 / sensitivity class Prostate PC-3(I) CL11001 / sensitivity class Renal A498 CL9013 / sensitivity class Renal SN12C CL9008: sensitivity class: 1 = Low, 2 = Medium, 3 = High. Conditions: for sensitivity class NSCLC NCI-H522 CL1003: cell line NSCLC NCI-H522, CL1003; for sensitivity class Ovarian OVCAR-3 CL6001: cell line Ovarian OVCAR-3, CL6001; for sensitivity class Renal TK10 CL9024: cell line Renal TK10, CL9024. Here is the method:
Cancer Cell Line Preparation. Sixty cancer cell lines were obtained from the National Cancer Institute Developmental Therapeutics Program (NCI-DTP). Procedures for growing cells and testing compounds have been described previously (Scudiero et al., Cancer Res. 1988, 48:4827-4833; Stinson et al., Anticancer Res.; Myers et al., Electrophoresis 1997, 18:647-653). Cells are plated on day 0 at a density individualized for each cell line so that they will generally be sub-confluent at the end of the assay period. On day 1, a compound is added in the format for a duplicate-well, 5-dose, ten-fold interval dose response study.
No-drug, no-cell and no-growth controls are included. On day 3 the cells are processed for staining with sulforhodamine B (SRB), which reflects the amount of cell mass present at the end of a 48 hour exposure to the test agent. From dose response curves based on the SRB data, various parameters can be determined. The one used in the present study is the G15o, defined as the concentration of compound required to inhibit growth of the cell line by 50%. More precisely, the quantity used in the calculation to be described is the potency measure -log{GI50}.
Activity database (A). Table IA, consisting of the growth inhibition (GI5o) values for the 60 cell lines and 24 compounds, was created from the NCI-DTP in vitro cancer screen database. This subset of compounds was selected from the larger 23,000 compound database available from the DTP. The compounds were selected on the basis of their known mechanism of action and chemical structure. The average potency—log{GI50} was extracted from the comma-delimited text files available through the Web at http://www.nci.nih.gov/intra/lmp/jnwbio.htmrl. Subsequently, these log{GI5o} values were inspected manually and classified as indicating either Low, Medium or High sensitivity to each compound.

Where [1] appears, read: cell line NSCLC NCI-H23(I), CL1001.
Where [2] appears, read: cell line Ovarian IGROV1, CL6010.
Where [3] appears, read: cell line Ovarian OVCAR-8, CL6005.
Where [4] appears, read: cell line Ovarian SK-OV-3, CL6011.

On to `COc1cccc2c1C(=O)c1c(O)c3c(c(O)c1C2=O)C[C@@](O)(C(=O)CO)C[C@@H]3O[C@H]1C[C@H](N)C[C@H](C)O1` [Deoxydoxorubicin], for which the “sensitivity class NSCLC NCI-H522 CL1003” value is recorded as 2, the “sensitivity class Ovarian OVCAR-3 CL6001” value turned out to be 2 and the “sensitivity class Renal TK10 CL9024” value was 1. Besides, the “classification of cell line as Low(1), Medium(2) or High(3) sensitivity to compound” value (shortened to “classification of cell line”) (Breast BT-549 (CL5013)) is reported as 2. Moreover, the “classification of cell line” value (Breast MCF7/ADRr (CL5002)) stood at 1. Also, the “classification of cell line” value (Breast MDA-N CL5012) was found to be 2. Further, under “CNS SF-268 CL12014”, the “classification of cell line” value is listed as 2. The “classification of cell line” value (CNS SF-295 CL12015) turned out to be 2. Where the note is “CNS SF-539 CL12016”, the “classification of cell line” value came to 2. Also, the “classification of cell line” value (CNS SNB-19 (CL12002)) was found to be 2. For the same molecule, the “classification of cell line” value (CNS SNB-75(I) CL12005) was found to be 2. The “classification of cell line” value (CNS U251(I) CL12009) came to 2. The “classification of cell line” value (Colon COLO-250 CL4010) is 2. In addition, the “classification of cell line” value (Colon HCT-15 CL4015) is on record as 1. Further, the “classification of cell line” value (Colon HT29(I) CL4001) amounted to 2. The “classification of cell line” value (Colon KM12 (CL4017)) was 2. Where the note is “Leukemia CCRF-CEM(I) (CL7003)”, the “classification of cell line” value came to 2. In addition, the “classification of cell line” value (Leukemia K562(I) CL7005) was 2. The “classification of cell line” value (Leukemia RPMI-8226(I) (CL7010)) was found to be 2. For the same molecule, where the note is “Leukemia SR CL7019”, the “classification of cell line” value turned out to be 3. In addition, for the setting “Melanoma LOX IMVI CL10001”, the “classification of cell line” value turned out to be 2. Besides, the “classification of cell line” value (Melanoma M14 (CL10014)) is given as 2. Besides, the “classification of cell line” value (Melanoma MALME-3M CL10002) turned out to be 2. Moreover, under setting [1], the “sensitivity class NSCLC NCI-H23(I) CL1001” value stood at 2. The “sensitivity class Ovarian IGROV1 CL6010” value under setting [2] is listed as 2. Also, the “sensitivity class Ovarian OVCAR-4 CL6002” value (cell line Ovarian OVCAR-4, CL6002) came to 2. Besides, under setting [3], the “sensitivity class Ovarian OVCAR-8 CL6005” value is on record as 2. The “sensitivity class Ovarian SK-OV-3 CL6011” value under setting [4] turned out to be 2. Also, the “sensitivity class Prostate DU-145 CL11003” value (cell line Prostate DU-145, CL11003) was 2. The “sensitivity class Prostate PC-3(I) CL11001” value (cell line Prostate PC-3(I), CL11001) stood at 2. For the same molecule, the “sensitivity class Renal A498 CL9013” value (cell line Renal A498, CL9013) came to 2. For the same molecule, the “sensitivity class Renal SN12C CL9008” value (cell line Renal SN12C, CL9008) stood at 2. Besides, the “sensitivity class Renal UO-31 CL9004” value (cell line Renal UO-31, CL9004) is listed as 1. The “3 # of High” value (number of the 60 cell lines classified High (3) sensitivity) was found to be 7.
Turning to `CC(=O)O[C@H]1C(=O)[C@@]2(C)[C@H]([C@H](OC(=O)c3ccccc3)[C@]3(O)C[C@H](OC(=O)[C@H](O)[C@@H](NC(=O)c4ccccc4)c4ccccc4)C(C)=C1C3(C)C)[C@]1(OC(C)=O)CO[C@@H]1C[C@@H]2O` [TAXOL, paclitaxel, reference compound], the “classification of cell line” value is 2 and 1 and 3; the “sensitivity class NSCLC NCI-H23(I) CL1001” value worked out at 2; the “sensitivity class NSCLC NCI-H332M CL1017” value is 2; the “sensitivity class Ovarian IGROV1 CL6010” value is 2. The “sensitivity class Ovarian OVCAR-4 CL6002” value came to 1, the “sensitivity class Ovarian OVCAR-8 CL6005” value is given as 2, the “sensitivity class Ovarian SK-OV-3 CL6011” value is on record as 2 and the “sensitivity class Prostate DU-145 CL11003” value was 2. Further, the “sensitivity class Prostate PC-3(I) CL11001” value is reported as 2, the “sensitivity class Renal 786-O CL9018” value was 2, the “sensitivity class Renal ACHN CL9023” value is on record as 1 and the “sensitivity class Renal CAKI-1 CL9015” value came to 1. Also, the “sensitivity class Renal RXF-393 CL9016” value is 2; the “sensitivity class Renal SN12C CL9008” value is recorded as 2; the “sensitivity class Renal UO-31 CL9004” value is 1; the “sensitivity class of the cell line to the compound (1 Low, 2 Medium, 3 High)” value was 1 and 3 and 2.
As to `CC[C@]1(O)C[C@@H]2CN(CCc3c([nH]c4ccccc34)[C@@](C(=O)OC)(c3cc4c(cc3OC)N(C)[C@H]3[C@@](O)(C(=O)OC)[C@H](OC(C)=O)[C@]5(CC)C=CCN6CC[C@]43[C@@H]65)C2)C1.O=S(=O)(O)O` [Vinbiastine sulfate], the “classification of cell line” value is 2 and 3 and 1.
In the case of `CC[C@]1(O)C[C@@H]2CN(CCc3c([nH]c4ccccc34)[C@@](C(=O)OC)(c3cc4c(cc3OC)N(C)[C@H]3[C@@](O)(C(=O)OC)[C@H](OC(C)=O)[C@]5(CC)C=CCN6CC[C@]43[C@@H]65)C2)C1` [Vinblastine sulfate], the “sensitivity class NSCLC NCI-H522 CL1003” value stood at 3, the “sensitivity class Ovarian OVCAR-3 CL6001” value is recorded as 3 and the “sensitivity class Renal TK10 CL9024” value came to 1. Besides, the “classification of cell line” value (CNS SF-539 CL12016) is on record as 2. The “classification of cell line” value (CNS SNB-19 (CL12002)) amounted to 2. Moreover, the “classification of cell line” value (CNS U251(I) CL12009) came out at 2. Further, the “classification of cell line” value (Colon HCC-2998 (CL4002)) came out at 2. In addition, the “classification of cell line” value (Colon HCT-15 CL4015) is on record as 1. Further, the “classification of cell line” value (Colon KM12 (CL4017)) is on record as 2. Moreover, for the setting “Colon SW-620 (CL4009)”, the “classification of cell line” value was 2. For the same molecule, the “classification of cell line” value (Leukemia CCRF-CEM(I) (CL7003)) was found to be 2. Further, the “classification of cell line” value (Leukemia HL-60(I) (CL7008)) is recorded as 3. The “classification of cell line” value (Leukemia MOLT-4 (CL7006)) is listed as 2. In addition, the “classification of cell line” value (Leukemia SR CL7019) amounted to 3. Further, where the note is “Melanoma M14 (CL10014)”, the “classification of cell line” value is listed as 2. Also, the “classification of cell line” value (Melanoma MALME-3M CL10002) is reported as 2. Also, the “classification of cell line” value (Melanoma SK-MEL-2 (CL10005)) amounted to 2. Also, under “Melanoma SK-MEL-5 (CL10007)”, the “classification of cell line” value is 3. The “classification of cell line” value (Melanoma SK-MEL-28 (CL10008)) came to 2. Further, the “classification of cell line” value (Melanoma UACC-62 (CL10020)) is given as 3. Also, the “classification of cell line” value (NSCLC A549/ATCC (CL1004)) turned out to be 2. Also, the “classification of cell line” value (NSCLC EKVX (CL1008)) stood at 1. Moreover, the “classification of cell line” value (NSCLC HOP-62 (CL1026)) is listed as 2. Further, where the note is “NSCLC HOP-92 (CL1029)”, the “classification of cell line” value stood at 2. For the same molecule, the “classification of cell line” value (NSCLC NCI-H226 CL1013) stood at 2. Under setting [1], the “sensitivity class NSCLC NCI-H23(I) CL1001” value is reported as 2. For the same molecule, the “sensitivity class NSCLC NCI-H332M CL1017” value (cell line NSCLC NCI-H332M, CL1017) is given as 2. The “sensitivity class NSCLC NCI-H460 CL1021” value (cell line NSCLC NCI-H460, CL1021) amounted to 2. In addition, under setting [2], the “sensitivity class Ovarian IGROV1 CL6010” value came to 2. For the same molecule, the “sensitivity class Ovarian OVCAR-8 CL6005” value under setting [3] was 2. Moreover, the “sensitivity class Ovarian SK-OV-3 CL6011” value under setting [4] was 2. Also, the “sensitivity class Renal 786-O CL9018” value (cell line Renal 786-O, CL9018) is 2. Besides, for the setting “cell line Renal CAKI-1, CL9015”, the “sensitivity class Renal CAKI-1 CL9015” value is listed as 2. For the same molecule, the “sensitivity class Renal RXF-393 CL9016” value (cell line Renal RXF-393, CL9016) amounted to 2. Moreover, for the setting “cell line Renal SN12C, CL9008”, the “sensitivity class Renal SN12C CL9008” value is given as 2. Where the note is “cell line Renal UO-31, CL9004”, the “sensitivity class Renal UO-31 CL9004” value came out at 1.
